The values below are quoted from earlier work in patent publication US7816404B2, “Methods for the preparation and use of ferric pyrophosphate citrate chelate compositions” (Rockwell Medical Technologies, Inc., priority 2007, dated 2010).

For the series the following is noted: stability constant with ferric ion.

Regarding `O=P(O)(O)OP(=O)(O)O` [pyrophosphate], the “log Kstab for ferric ion” value is listed as 22.2.

Take `O=C(O)CC(O)(CC(=O)O)C(=O)O` [citrate]: the “log Kstab for ferric ion” value is on record as 12.
